Measurements taken from patent US10676438B2, “KCNQ2-5 channel activator” (Ono Pharmaceutical Co., Ltd., priority 2014, dated 2020).
Values after ≈ are worked out from the molar mass of the structure shown.

Tests used:
Human KCNQ2/3 channel = Human KCNQ2/3 channel (Homo sapiens (Human), UniProt O43525+O43526); test: Opening action with respect to KCNQ2/3 channel by depolarization stimulation (thallium influx, FLIPR); type: cell-based; settings: concentration giving 50% of maximum reaction of retigabine (10 μM); human KCNQ2/3 expression CHO-DHFR- cells; 5 mM potassium and 0.5 mM thallium; read-out: KCNQ2/3 ECrtg50
Procedure: Human KCNQ2/3 expression cells (CHO-DHFR-cells) were seeded in each well of 384 well plate (collagen-coated, black, clear bottom) at 0.5×10^4 cells/50 μL per well, and cultured in a MEM ALPHA medium (containing 10 vol % inactivated (56° C., 30 min) Fetal Bovine Serum and 100 IU/mL Penicillin—100 μg/mL Streptomycin—2 mM L-Glutamine) at 37° C. in 5% CO2 for 18 to 24 hours. The medium in the plate was removed. Then, incubation (room temperature, 60 minutes, light-shielded) was carried out in a loading buffer (prepared by the method described in the manual of FluxOR Thallium Detection Kit (Invitrogen, F10016, F10017)). KCNQ2/3 channel opening action (thallium influx into cells) by the depolarization stimulation (5 mM potassium and 0.5 mM thallium) was measured by FLIPR TETRA (Molecular Devices). The compound of the present invention had been treated five minutes before the depolarization stimulation, and the reaction induced by the depolarization stimulation was measured over time for 180 seconds. The channel opening action of the compound of the present invention was evaluated based on the change amount of the fluorescence intensity from the time before the depolarization stimulation to the time after the passage of 180 seconds. Thus, the concentration (ECrtg50) satisfying 50% of the fluorescence intensity change of maximum reaction (at the time of 10 μM-treatment) of retigabine under this experiment condition was calculated.

[1] = Solubility test (DMSO precipitation method, Pharmacopoeia of Japan elution test second solution); type: physicochemical; settings: aqueous buffer, kinetic from dmso stock; Pharmacopoeia of Japan elution test second solution pH=6.8, room temperature, five hours; quantitation range 5 to 100 μM
Procedure: A calibration curve solution was prepared by diluting a test substance (10 mM DMSO solution) with acetonitrile and adding acetonitrile including an internal standard substance (candesartan) so as to be 0.1, 0.4, and 2 μM.
Sample solution was prepared as follows: 5 μL of the compound of the present invention (10 mM DMSO solution) was added to 495 μL of the Pharmacopoeia of Japan elution test second solution (pH=6.8), and the resulting mixture was stirred at room temperature for five hours. Then, the solution was placed into a solubility filter plate and subjected to suction filtration. The filtrate (20 μL) was diluted with acetonitrile, followed by adding acetonitrile including an internal standard substance ([…]).
The calibration curve and sample solutions in the amount of 5 μL were infused into LC-MS/MS (Discovery Max manufactured by Thermo Scientific) and subjected to quantitation (quantitation range: 5 to 100 μM).

[2] = Evaluation of stability in human liver microsome; type: in vitro ADME; settings: 5 μmol/L
Procedure: A test compound (10 mmol/L DMSO solution, 5 μL) was diluted with 50% acetonitrile aqueous solution (195 μL) to prepare 0.25 mmol/L solution.
To a reactor vessel which had been warmed to 37° C. in advance, 0.5 mg/mL of human liver microsome (Xenotech) and 245 μL of 0.1 M phosphate buffer solution (pH 7.4) including NADPH-Co-factor (BD Biosciences) were added, followed by preincubation for five minutes. Then, the above-mentioned test compound solution (5 μL) was added so as to start reaction (final concentration: 5 μmol/L). Immediately after the start, 20 μL was harvested and added to 180 μL of acetonitrile including an internal standard substance (warfarin) to stop the reaction. This solution (20 μL) was stirred with 180 μL of 50% acetonitrile aqueous solution on a plate equipped with a deproteinization filter. Then, the resulting mixture solution was subjected to suction filtration. The filtrate was adopted as a standard sample.
The above-mentioned reaction solution was incubated at 37° C. for 15 minutes, and 20 μL of the solution was added to 180 μL of cooled acetonitrile (including warfarin that is an internal standard substance) to stop the reaction. This solution (20 μL) was stirred with 180 μL of 50% acetonitrile aqueous solution on a plate equipped with a deproteinization filter, and then the resulting mixture solution was subjected to suction filtration. The filtrate was adopted as a reaction sample.
Residual rate (%) was obtained as follows: 1 μL of the sample solution was infused into LC-MS/MS (Discovery Max manufactured by Thermo Scientific), and a quotient obtained by dividing a peak area ratio of the reaction sample (peak area of test compound/peak area of internal standard substance) was divided by the peak area ratio of the standard sample was multiplied by 100.

[3] = system: urinary bladder extracted from rat; test: Relaxing action on urinary bladder extracted from rat (rat Magnus test); settings: concentration at which tension change rate is -20%; carbachol 1 μM-induced contraction of rat urinary bladder strips
Procedure: Female Jcl Wistar rats (CLEA Japan, Inc., body weight in use: 170 to 200 g) were anesthetized by intraperitoneal administration of about 40 mg/kg of pentobarbital (Somnopentyl, Schering Plough Animal Health Corporation), and killed by bloodletting, followed by abdominal incision to extract the urinary bladder. Immediately, the extracted urinary bladder was immersed in ice-cooled Krebs buffer (Krebs Ringer bicarbonate buffer (Sigma-Aldlich Co.) containing sodium hydrogencarbonate (final concentration: 15 mM) and calcium chloride (final concentration: 2.5 mM)) which had been saturated with a mixed gas (95% O2, 5% CO2).
The urinary bladder bodies were cut in the longitudinal direction to prepare strip specimens (about 10×3 mm) on ice. Immediately, the prepared specimens were suspended in a Magnus tube with 500 mg of tension loaded. The tube was filled with Krebs buffer (37° C.) aerated with a mixed gas. Note here that specimens were prepared within 24 hours after extraction of the tissue.
When one hour or more had passed after the specimen was suspended, 2.5M KCl was added so that the final concentration became 100 mM, specimens showing contraction reaction were used.
Carbachol (a contraction-inducing substance) at the concentration of contraction of 1 μM was used to induce contraction. […] After the contraction reaction was stabilized, a physiological salt solution or the compound of the present invention was added in a cumulative manner from low concentration such that the final concentration became 1, 10, 100 nM, 1 and 10 μM.
The tension (mg) of the extracted urinary bladder was employed as an evaluation parameter. The tension was read by using analysis software WAVE THERMO 1000. Tension after addition of the contraction-inducing substance was set to 0%. The change rate of the tension after addition of the compound of the present invention relative to the tension after addition of the contraction-inducing substance was defined as tension change rate (%). The tension change rate (%) was adopted as an evaluation indicator. The tension change rate (%) is calculated from the following formula. Tension change rate (%)={Tension after addition of compound of the present invention and the like (mg)−Tension before addition of contraction-inducing substance (mg)}/{Tension after addition of contraction-inducing substance (mg)−Tension before addition of contraction-inducing substance (mg)}×100−100
The value at which the tension change rate (%) was −20% was calculated as IC20, and the value was adopted as an indicator of the relaxing action of the extracted urinary bladder.

hERG channel = hERG channel (Homo sapiens (Human), UniProt Q12809); test: Evaluation of action on hERG IKr current (patch-clamp); type: cell-based; settings: HEK293 cell overexpressing hERG, maximum tail current, 10 minutes after application; read-out: IC50 (50% inhibitory activity of hERG channel)
Procedure: Using HEK293 cell overexpressing a human ether-a-go-go-related gene (hERG), the maximum tale current of the hERG IKr current induced by redepolarization pulse subsequent to depolarization pulse was measured by a patch-clamp method.

[4] = human liver microsome 0.5 mg/mL, NADPH, 37° C., 15 minutes

Sequence of hERG channel (Q12809 whole entry): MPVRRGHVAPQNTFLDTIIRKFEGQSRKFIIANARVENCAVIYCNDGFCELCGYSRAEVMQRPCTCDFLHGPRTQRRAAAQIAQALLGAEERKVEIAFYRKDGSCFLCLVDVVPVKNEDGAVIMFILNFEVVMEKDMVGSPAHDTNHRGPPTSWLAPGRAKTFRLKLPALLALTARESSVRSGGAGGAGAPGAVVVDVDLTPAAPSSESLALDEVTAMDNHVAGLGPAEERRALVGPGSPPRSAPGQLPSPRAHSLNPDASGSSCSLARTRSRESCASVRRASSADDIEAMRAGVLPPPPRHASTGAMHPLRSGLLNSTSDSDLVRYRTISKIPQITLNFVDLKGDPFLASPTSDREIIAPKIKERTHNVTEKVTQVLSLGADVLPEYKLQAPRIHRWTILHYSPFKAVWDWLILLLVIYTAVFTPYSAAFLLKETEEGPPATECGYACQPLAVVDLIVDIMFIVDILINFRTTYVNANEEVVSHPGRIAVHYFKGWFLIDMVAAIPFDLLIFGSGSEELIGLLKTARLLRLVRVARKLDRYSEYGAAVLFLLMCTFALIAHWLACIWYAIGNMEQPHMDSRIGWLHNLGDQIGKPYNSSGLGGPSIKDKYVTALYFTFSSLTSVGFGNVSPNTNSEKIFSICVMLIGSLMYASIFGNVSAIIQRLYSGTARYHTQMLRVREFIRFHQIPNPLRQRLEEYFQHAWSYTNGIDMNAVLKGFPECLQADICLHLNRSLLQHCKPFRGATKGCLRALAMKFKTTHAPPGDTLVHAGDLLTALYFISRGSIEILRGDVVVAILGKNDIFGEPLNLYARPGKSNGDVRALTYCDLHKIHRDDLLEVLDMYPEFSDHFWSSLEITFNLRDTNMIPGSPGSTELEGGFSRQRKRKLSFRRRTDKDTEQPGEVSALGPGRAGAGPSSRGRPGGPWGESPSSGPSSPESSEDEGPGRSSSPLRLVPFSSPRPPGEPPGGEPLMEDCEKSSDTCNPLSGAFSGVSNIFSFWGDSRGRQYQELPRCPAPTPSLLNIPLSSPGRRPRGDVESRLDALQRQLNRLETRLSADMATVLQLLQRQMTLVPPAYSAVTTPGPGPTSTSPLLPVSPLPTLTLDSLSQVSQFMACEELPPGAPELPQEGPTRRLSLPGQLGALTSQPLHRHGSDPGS

SMILES	EC50 (Human KCNQ2/3 channel) [nM]	solubility at 5 h [1] [µM]	Residual rate ([2]; human, 15 min, pH 7.4) [%]	IC20 [3] [nM]	Residual rate [2, 4] [%]	IC50 (hERG channel) [nM]
CC(O)(c1cc(Cl)c(NC(=O)NCc2cc3cc(F)ccc3[nH]2)c(Cl)c1)C(F)(F)F (stereo not drawn) [Example 5 (13), 1-[2,6-dichloro-4-(1,1,1-trifluoro-2-hydroxy-2-propanyl)phenyl]-3-[(5-fluoro-1H-indole-2-yl)methyl]urea]	600	81 (≈ 37.6 µg/mL)	75	–	–	–
CC(O)(c1cc(Cl)c(NC(=O)NC[C@@H]2CCCO2)c(Cl)c1)C(F)(F)F (stereo partly drawn) [Example 5 (15), 1-[2,6-dichloro-4-(1,1,1-trifluoro-2-hydroxy-2-propanyl)phenyl]-3-[(2S)-tetrahydro-2-furanylmethyl]urea]	2300	90 (≈ 36.1 µg/mL)	97	–	–	–
CC(O)(c1cc(Cl)c(NC(=O)NCCC(F)(F)F)c(Cl)c1)C(F)(F)F (stereo not drawn) [Example 5 (19), 1-[2,6-dichloro-4-(1,1,1-trifluoro-2-hydroxy-2-propanyl)phenyl]-3-(3,3,3-trifluoropropyl)urea]	100	76 (≈ 31.4 µg/mL)	100	–	–	–
C[C@@H](NC(=O)Nc1c(Cl)cc(C(C)(O)C(F)(F)F)cc1Cl)C1CC1 (stereo partly drawn) [Example 5 (20), 1-[(1R)-1-cyclopropylethyl]-3-[2,6-dichloro-4-(1,1,1-trifluoro-2-hydroxy-2-propanyl)phenyl]urea]	500	100 (≈ 38.5 µg/mL)	91	–	–	–
C[C@@](O)(c1cc(Cl)c(NC(=O)NCc2ccc(C#N)cc2)c(Cl)c1)C(F)(F)F [Example 22 (15), 1-(4-cyanobenzyl)-3-{2,6-dichloro-4-[(2R)-1,1,1-trifluoro-2-hydroxy-2-propanyl]phenyl}urea]	200	–	93	–	–	–
C[C@@](O)(c1cc(Cl)c(NC(=O)NCc2ccc(Oc3ccc(F)cc3)cc2)c(Cl)c1)C(F)(F)F [Example 22 (16), 1-{2,6-dichloro-4-[(2R)-1,1,1-trifluoro-2-hydroxy-2-propanyl]phenyl}-3-[4-(4-fluorophenoxyl)benzyl]urea]	4	–	94	–	–	–
C[C@@](O)(c1cc(Cl)c(NC(=O)NCc2nc(C(F)(F)F)no2)c(Cl)c1)C(F)(F)F [Example 23, 1-{2,6-dichloro-4-[(2R)-1,1,1-trifluoro-2-hydroxy-2-propanyl]phenyl}-3-{[3-(trifluoromethyl)-1,2,4-oxadiazole-5-yl]methyl}urea]	10	46 (≈ 21.5 µg/mL)	–	100	100	–
C[C@](O)(c1cc(Cl)c(NC(=O)NCc2ccc(OCC(F)(F)F)nc2)c(Cl)c1)C(F)(F)F [Example 25 (6), 1-{2,6-dichloro-4-[(2S)-1,1,1-trifluoro-2-hydroxy-2-propanyl]phenyl}-3-{[6-(2,2,2-trifluoroethoxy)-3-pyridinyl]methyl}urea]	60	40 (≈ 20.2 µg/mL)	73	–	–	–
C[C@](O)(c1cc(Cl)c(NC(=O)NCc2nc(C(F)(F)F)no2)c(Cl)c1)C(F)(F)F [Example 26, 1-{2,6-dichloro-4-[(2S)-1,1,1-trifluoro-2-hydroxy-2-propanyl]phenyl}-3-{[3-(trifluoromethyl)-1,2,4-oxadiazole-5-yl]methyl}urea]	40	59 (≈ 27.6 µg/mL)	–	200	64	–
O=C(NCc1nc(C(F)(F)F)no1)Nc1c(Cl)cc([C@@H](O)C(F)(F)F)cc1Cl [Example 32 (1), 1-{2,6-dichloro-4-[(1R)-2,2,2-trifluoro-1-hydroxyethyl]phenyl}-3-{[3-(trifluoromethyl)-1,2,4-oxadiazole-5-yl]methyl}urea]	7	100 (≈ 45.3 µg/mL)	–	20	–	–
O=C(NCc1nc(C(F)(F)F)no1)Nc1c(Cl)cc([C@H](O)C(F)(F)F)cc1Cl [Example 35 (1), 1-{2,6-dichloro-4-[(1S)-2,2,2-trifluoro-1-hydroxyethyl]phenyl}-3-{[3-(trifluoromethyl)-1,2,4-oxadiazole-5-yl]methyl}urea]	8	100 (≈ 45.3 µg/mL)	100	20	–	–
CC(O)(c1cc(Cl)c(NC(=O)Cc2ccc(F)cc2)c(Cl)c1)C(F)(F)F (stereo not drawn) [Example 50 (1), N-[2,6-dichloro-4-(1,1,1-trifluoro-2-hydroxy-2-propanyl)phenyl]-2-(4-fluorophenyl)acetamide]	60	82 (≈ 33.6 µg/mL)	96	–	–	> 10000
Cc1cc(C(O)C(F)(F)F)ccc1NC(=O)NCc1ccc(C(F)(F)F)cn1 (stereo not drawn) [Example 60, 1-[2-methyl-4-(2,2,2-trifluoro-1-hydroxyethyl)phenyl]-3-{[5-(trifluoromethyl)-2-pyridinyl]methyl}urea]	1700	–	98	–	–	–
CC(O)(c1cc(Cl)c(NC(=O)NCc2ccc(C(F)(F)F)cn2)c(Cl)c1)C(F)F (stereo not drawn) [Example 75, 1-[2,6-dichloro-4-(1,1-difluoro-2-hydroxy-2-propanyl)phenyl]-3-{[5-(trifluoromethyl)-2-pyridinyl]methyl}urea]	400	–	100	–	–	–
